Assay results from patent US10004730B2, “Small molecules targeting androgen receptor nuclear localization and/or level in prostate cancer” (University of Pittsburgh-Of the Commonwealth System of …, priority 2011, dated 2018).

What was measured:
Type in all cases: cell-based
[1] = system: AR transactivation of PSA-luciferase reporter; test: PSA-luciferase reporter, full-length AR, C4-2 cells; settings: 24 hours
Experimental: FIGS. 13A-C. Effect of SID 3712502 on the expression of AR and PSA in 22Rv1 (FIG. 13A) cells. […] The cells in RPMI 1640 complete medium were treated with SID 3712502 or vehicle DMSO at the indicated concentrations (uM) for 48 h. The cells were then harvested in RIPA buffer for Western blot analysis using antibodies for AR, PSA, and GAPDH. GAPDH was included as a loading control. FIG. 13B. SID 3712502 inhibits AR transactivation of PSA-luciferase reporter. C4-2 cells were transfected with PSA6.1-Luc, GFP-AR, and pRL-CMV and then treated with indicated doses of SID 3712502 for 24 hours. FIG. 13C. SID 3712502 inhibits transactivation of PSA-luciferase reporter by AR(1-665), which lacks LBD. PC3 cells were transfected with GFP-NAR and PSA6.1 Luc overnight prior to treatment with 10 μM SID 3712502 (SID) or DMSO (C) for 24 hours. For luciferase assays, cells were lysed with passive lysis buffer (Promega) and both Firefly and Renilla luciferase activities were read using a Dual-Luciferase Reporter Assay kit (Promega) on a LmaxII384 luminometer (Molecular Devices). Firefly luciferase values were normalized to Renilla (pRL-CMV) or protein of cell lysates. Plotted values represent averaged normalized Firefly luciferase activities, each performed in triplicate, relative to DMSO control. One-way ANOVA was performed with a Bonferroni's Multiple Comparison posttest *** p<0.0001 (C). […]

GFP-AR = target: T1, GFP-AR (Homo sapiens, UniProt P10275); test: Localization of transiently transfected GFP-AR by fluorescence microscopy; settings: transfected C4-2 cells, complete RPMI with 10% FBS, overnight treatment
T1 construct: expressed in transfected cells; also PC3 and LNCaP (transient)
T1 sequence (P10275 1-920): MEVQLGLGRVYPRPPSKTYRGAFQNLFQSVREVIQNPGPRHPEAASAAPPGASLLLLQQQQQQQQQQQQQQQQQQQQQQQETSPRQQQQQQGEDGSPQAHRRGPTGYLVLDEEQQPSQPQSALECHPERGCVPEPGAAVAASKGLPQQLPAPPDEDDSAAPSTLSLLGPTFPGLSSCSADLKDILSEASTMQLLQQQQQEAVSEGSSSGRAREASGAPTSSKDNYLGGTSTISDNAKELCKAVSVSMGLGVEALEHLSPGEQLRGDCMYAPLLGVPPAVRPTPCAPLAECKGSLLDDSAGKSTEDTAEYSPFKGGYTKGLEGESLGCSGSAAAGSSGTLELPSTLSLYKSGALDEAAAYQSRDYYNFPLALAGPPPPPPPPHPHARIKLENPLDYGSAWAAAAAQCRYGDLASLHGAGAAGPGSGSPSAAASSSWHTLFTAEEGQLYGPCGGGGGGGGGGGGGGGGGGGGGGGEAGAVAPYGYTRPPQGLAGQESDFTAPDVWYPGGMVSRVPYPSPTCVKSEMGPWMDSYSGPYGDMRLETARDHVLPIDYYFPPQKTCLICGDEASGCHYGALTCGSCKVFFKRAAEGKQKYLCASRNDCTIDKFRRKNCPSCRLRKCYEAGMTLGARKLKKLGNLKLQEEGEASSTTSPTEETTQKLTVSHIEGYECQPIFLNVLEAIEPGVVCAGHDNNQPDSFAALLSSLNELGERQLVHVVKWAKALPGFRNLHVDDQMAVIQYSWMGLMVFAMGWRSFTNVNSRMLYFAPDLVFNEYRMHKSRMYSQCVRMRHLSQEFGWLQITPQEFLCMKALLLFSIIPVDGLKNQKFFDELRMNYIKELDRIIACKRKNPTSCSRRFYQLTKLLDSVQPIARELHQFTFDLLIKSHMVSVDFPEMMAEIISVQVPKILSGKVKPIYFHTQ
Experimental: FIGS. 2A and 2B. Localization of GFP-AR in AR-negative PC3, androgen-sensitive LNCaP, and CRPC C4-2 cells. […] PC3, LNCaP, and C4-2 cells were transfected with GFP-AR and localization was assessed in ligand-free conditions or in the presence of mibolerone by fluorescence microscopy within 24 hours of transfection. The results in FIG. 2B are from five transfections for each cell line in the absence of androgen. At least 50 cells were counted after each transfection. Error bars represent ±SEM.
FIGS. 3A and 3B. […] FIG. 3A. […] Localization was assessed by fluorescence microscopy 4 hours after treatment. FIG. 3B.
FIGS. 6A, 6B, 6C and 6D. FIG. 6A. […] FIG. 6B. […] C4-2 cells were transfected with GFP-AR and subcellular localization of GFP-AR was determined after overnight treatment using fluorescent microscopy. FIG. 6C. Quantitative analysis of results in FIG. 6B. […] FIG. 6D. […] Endogenous AR was detected by immunofluorescent staining using AR antibody N-20 (Santa Cruz Biotechnology). Nuclei were stained with Hoechst.
A prerequisite for AR transcriptional activity is its nuclear localization. To determine whether the subcellular localization of AR was altered during the progression to castration-resistance, AR-negative PC3 prostate cancer cells, androgen-sensitive LNCaP cells and castration-resistant C4-2 cells were transfected with AR tagged to green fluorescent protein (GFP) and localization was assessed by fluorescence microscopy in hormone-free conditions.
Hsp90 plays an important role in ligand-induced AR nuclear translocation. […] To determine if the effect of hsp90 inhibition on endogenous AR in C4-2 cells was similar to its effect on transfected GFP-AR, immunofluorescence experiments were performed.

PC3 cells = test: Cell survival, crystal violet staining, PC3; settings: 48 hrs
Experimental: FIGS. 8A and 8B. Effect of SID 14730725 and SID 3712502 on survival of PC3 (FIG. 8A) and C4-2 cells (FIG. 8B). PC3 or C4-2 cells were plated in 12-well plates at 2,500 cell per well in RPMI 1640 complete medium. After 24 hrs, the cells were treated with SID 14730725 or SID 3712502 at the indicated concentrations for 48 hrs. The wells were washed with PBS thrice and fixed in 0.5% crystal Violet in methanol. C=control; treated with vehicle DMSO.

In the case of Cc1cccc(N2CCN(C(=O)CSCc3c(C)noc3C)CC2)c1C [SID 3712502, 2-[(3,5-dimethyl-1,2-oxazol-4-yl)methylsulfanyl]-1-[4-(2,3-dimethylphenyl)piperazin-1-yl]ethanone], the “transactivation activity of full-length AR (PSA-luciferase)” value [1] is reported as “can inhibit the transactivation activity”, the GFP-AR nuclear localization (GFP-AR) is reported as “effectively inhibited” and the cytotoxicity (PC3 cells) is reported as “little or no cytotoxicity”.
